{
  "source": "paper PMC4745983",
  "about": "(Frontiers in Cell and Developmental Biology, 2016)",
  "key": {"E. coli CECT101": {"tested_on": "E. coli CECT101", "type": "cell-based, Escherichia coli", "conditions": "growth curves, 18 h; experiment repeated three times", "method": "(§1) L. lactis strains were cultured in M17 broth supplemented with 0.5% (w/v) glucose (GM17) for genetic manipulation or in minimal expression medium (MEM) for protein expression at 30°C (Rink et al., [2005]). E. coli CECT101 was grown in Luria-Bertani broth aerated by shaking (200 rpm) at 37°C.\n(§2) The indicator strains were first cultured until OD (600 nm) reached 0.5. When testing the MIC value, the culture was diluted 1000 times with the appropriate medium. All the tests were performed with a temperature controlled plate reader (Tecan infinite F200, Tecan Group AG) in a 96-well plate (Greiner Bio-one). The peptides were first diluted in gradient with medium and then mixed with diluted indicator strains. The final concentration of the peptides ranged from 0.00625 to 0.8 μM against L. lactis MG1363 and from 0.25 to 32 μM against E. coli CECT101 in 100 μl volume. The plate was incubated at 30°C or 37°C for 18 h depending on the indicator strain being L. lactis or E. coli, respectively. OD (600 nm) was checked every 30 min. For E. coli, 2 min of shaking was performed before every check. When testing the activity of nisin against E. coli in the presence of EDTA, an EDTA solution was prepared and added to a final concentration of 50, 110, or 250 μM. The minimal concentration of peptide causing no observed growth of indicator strains was considered as the MIC value."}, "L. lactis MG1363": {"tested_on": "L. lactis MG1363", "type": "cell-based, Lactococcus lactis", "conditions": "from MIC values", "method": "as §1, §2"}, "E. coli CIP": {"tested_on": "E. coli CIP", "assay": "Growth curve inhibition of E. coli CIP", "type": "cell-based, Escherichia coli", "conditions": "growth curves of 8μM nisin and 8μM GNT16; Luria-Bertani broth, 37°C"}, "[1]": {"tested_on": "Enterobacter aerogenes CECT684", "assay": "Growth curve inhibition of Enterobacter aerogenes CECT684", "type": "cell-based", "conditions": "growth curves of 8μM nisin and 8μM GNT16; GM17, 37°C"}, "E. coli O157:H7": {"tested_on": "E. coli O157:H7", "conditions": "indicator strain E. coli O157:H7; ref Bikker et al., [2006]; cited from earlier work", "from_the_text": "(§3) Table 1 List of selected peptides with anti-Gram-negative bacteria activity. | column: MIC(μM)"}, "E. coli UB1005": {"tested_on": "E. coli UB1005", "conditions": "indicator strain E. coli UB1005; ref Hilpert et al., [2005]; cited from earlier work", "from_the_text": "as §3"}, "E. coli ATCC 700928": {"tested_on": "E. coli ATCC 700928", "conditions": "indicator strain E. coli ATCC 700928; ref Sainath Rao et al., [2013]; cited from earlier work", "from_the_text": "as §3"}},
  "note": "Marks after values point to notes of the source that are not given here.",
  "data": [
    {"compound": "C=C1NC(=O)[C@H]([C@@H](C)CC)NC(=O)[C@H](NC(=O)/C(=C/C)NC(=O)[C@@H](N)[C@@H](C)CC)CSC[C@@H](C(=O)N[C@H]2C(=O)N3CCC[C@H]3C(=O)NCC(=O)N[C@H](C(=O)N[C@@H](CCCCN)C(=O)N[C@H]3C(=O)NCC(=O)N[C@@H](C)C(=O)N[C@@H](CC(C)C)C(=O)N[C@@H](CCSC)C(=O)NCC(=O)N[C@H](C(=O)N[C@@H](CC(N)=O)C(=O)N[C@@H](CCSC)C(=O)N[C@@H](CCCCN)C(=O)N[C@H]4C(=O)N[C@@H](C)C(=O)N[C@H]5C(=O)N[C@@H](CS[C@H]4C)C(=O)N[C@@H](Cc4c[nH]cn4)C(=O)N[C@H](C(=O)N[C@@H](CO)C(=O)N[C@H](C(=O)N[C@@H](Cc4c[nH]cn4)C(=O)N[C@H](C(=O)NC(=C)C(=O)N[C@@H](CCCCN)C(=O)N4CCC[C@H]4C(=O)N[C@@H](CCCNC(=N)N)C(=O)N4CCC[C@H]4C(=O)N4CCC[C@H]4C(=O)N[C@@H](Cc4c[nH]cn4)C(=O)N4CCC[C@H]4C(=O)N[C@@H](CCCNC(=N)N)C(=O)N[C@@H](CC(C)C)C(=O)O)C(C)C)[C@@H](C)CC)CS[C@H]5C)CS[C@H]3C)CS[C@H]2C)NC(=O)[C@H](CC(C)C)NC1=O", "note": "[GNT16]", "values": [
      {"measurement": "Concentration that fully inhibits growth of E. coli CECT101 within 18 h (Figure 3)", "setting": "E. coli CECT101", "value": 8, "unit": "µM"},
      {"measurement": "Decrease of activity against L. lactis MG1363 relative to nisin", "setting": "L. lactis MG1363", "value": 32, "unit": "times"},
      {"measurement": "Inhibitory activity against E. coli CIP compared with nisin", "setting": "E. coli CIP", "value": "equal or slightly better inhibitory activity than nisin"},
      {"measurement": "Inhibitory activity against Enterobacter aerogenes CECT684 compared with nisin", "setting": "[1]", "value": "equal or slightly better inhibitory activity than nisin"}
    ]},
    {"compound": "GKPRPYSPRPTSHPRPIRV [Drosocin]", "values": [
      {"measurement": "MIC", "setting": "E. coli O157:H7", "value": "25^c μM"}
    ]},
    {"compound": "RIWVIWRR-NH2 [Bac8c]", "values": [
      {"measurement": "MIC", "setting": "E. coli UB1005", "value": "1.7^e μM"}
    ]},
    {"compound": "RLLFRKIRRLKR [EC5]", "values": [
      {"measurement": "MIC", "setting": "E. coli ATCC 700928", "value": "4.8^d μM"}
    ]}
  ]
}
